# Test results reported in patent US4262004A, “2,3-Dihydro-imidazo[2,1-b]benzothiazole compositions to treat depressions” (Janssen Pharmaceutica, N.V., priority 1979, dated 1981).
# Where a name gives a salt, the structure may show the parent alone. Read-outs that look alike come from different tables or passages of the source.
# Tests used:
# [1] = biological target: T1, monoamine oxidase (type A enzyme, tryptamine substrate) (Rattus norvegicus, UniProt P21396); assay: in-vitro monoamine oxidase inhibition, [14C]tryptamine as substrate; type: biochemical; conditions: Table I; monoamine oxidase extract of Wistar rat tissue, pH 7.4, 37° C., 20 minutes; read-out: I.C.50-value using as substrate [14C]tryptamine
# T1 sequence (P21396 1-526): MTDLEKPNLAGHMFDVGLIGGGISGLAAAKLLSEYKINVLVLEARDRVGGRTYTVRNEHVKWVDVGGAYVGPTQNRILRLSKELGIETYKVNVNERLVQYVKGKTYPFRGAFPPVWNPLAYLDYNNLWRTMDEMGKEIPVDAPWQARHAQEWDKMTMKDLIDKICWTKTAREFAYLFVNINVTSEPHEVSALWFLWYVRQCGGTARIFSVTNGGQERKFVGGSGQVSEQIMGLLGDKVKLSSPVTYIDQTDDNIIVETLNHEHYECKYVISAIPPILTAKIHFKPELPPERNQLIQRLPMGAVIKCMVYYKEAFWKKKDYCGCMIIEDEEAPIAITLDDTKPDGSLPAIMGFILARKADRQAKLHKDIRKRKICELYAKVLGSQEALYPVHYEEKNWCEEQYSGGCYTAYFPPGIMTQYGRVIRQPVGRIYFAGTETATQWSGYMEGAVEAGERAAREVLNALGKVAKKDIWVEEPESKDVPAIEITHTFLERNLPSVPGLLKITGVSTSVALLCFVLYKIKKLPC
# [2] = biological target: T2, monoamine oxidase (type B enzyme, β-phenylethylamine substrate) (Rattus norvegicus, UniProt P19643); assay: in-vitro monoamine oxidase inhibition, [14C]phenylethylamine hydrochloride as substrate; type: biochemical; conditions: monoamine oxidase extract of Wistar rat tissue, pH 7.4, 37° C., 20 minutes
# T2 sequence (P19643 1-520): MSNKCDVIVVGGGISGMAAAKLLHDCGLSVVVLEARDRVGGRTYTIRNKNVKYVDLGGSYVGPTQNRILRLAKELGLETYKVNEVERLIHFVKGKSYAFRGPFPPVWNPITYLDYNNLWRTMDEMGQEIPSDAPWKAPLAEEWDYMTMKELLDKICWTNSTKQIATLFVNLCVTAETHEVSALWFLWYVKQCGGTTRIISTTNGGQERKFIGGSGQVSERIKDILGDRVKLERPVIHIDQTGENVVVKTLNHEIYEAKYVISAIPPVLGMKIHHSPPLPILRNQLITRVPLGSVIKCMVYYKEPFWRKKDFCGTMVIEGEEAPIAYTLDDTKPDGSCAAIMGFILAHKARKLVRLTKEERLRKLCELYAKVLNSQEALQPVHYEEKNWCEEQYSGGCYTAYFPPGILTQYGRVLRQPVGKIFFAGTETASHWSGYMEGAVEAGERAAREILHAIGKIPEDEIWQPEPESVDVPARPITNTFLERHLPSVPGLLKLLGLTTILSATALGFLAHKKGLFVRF
# [3] = Table I, read-out: I.C.50-value using as substrate [14C]phenylethylamine . HCl
IC50 [1] [nM],"IC50 [2, 3] [nM]","IC50 ([2]; Table 2, read-out: I.C.50-value using as substrate [14C]phenylethylamine hydrochloride) [nM]",SMILES
220,3000,–,"O=C(c1ccccc1)c1ccc2c(c1)N1CCN=C1S2 [6-COC6 H5, (2,3-dihydroimidazo[2,1-b]benzothiazol-6-yl)phenylmethanone monohydrochloride]"
280,14000,–,COc1ccc2c(c1)SC1=NCCN12 [Example 7-OCH3]
20000,70,–,"COc1cc(CNc2ccc3c(c2)SC2=NCCN23)cc(OC)c1OC [7-NHCH2 [3,4,5-(OCH3)3C6 H2]]"
2000,–,–,"Oc1ccc2c(c1)SC1=NCCN12 [Example 7-OH, 2,3-dihydroimidazo[2,1-b]benzothiazol-7-ol monohydrobromide]"
800,55000,–,C#CCNc1ccc2c(c1)SC1=NCCN12
140,10000,–,CCc1ccc2c(c1)N1CCN=C1S2 [6-C2 H5]
6,4000,–,"c1ccc2c3c(ccc2c1)SC1=NCCN13 [5,6-(CHCHCHCH)]"
1600,12000,–,"NC(=O)Nc1ccc2c(c1)N1CCN=C1S2 [Example 6-NHCONH2, N-(2,3-dihydroimidazo[2,1-b]benzothiazol-6-yl)urea]"
6,1800,–,CCC(CC)Nc1ccc2c(c1)N1CCN=C1S2 [6-NHCH(C2 H5)2]
20,40,–,CCCCCCc1ccc2c(c1)SC1=NCCN12 [7-C6 H13]
2500,6000,–,"CCCc1ccc2c(c1)SC1=NC(c3ccccc3)CN12 (stereo not shown) [2-C6 H5,7-C3 H7]"
26,70,–,Clc1ccc(CNc2ccc3c(c2)N2CCN=C2S3)cc1 [6-NHCH2(4-ClC6 H4)]
220,2200,–,CCCN(C=C(C(=O)OCC)C(=O)OCC)c1ccc2c(c1)SC1=NCCN12 [7-N(C3 H7)CHC(COOEt)2]
130,–,–,CC(CO)Nc1ccc2c(c1)N1CCN=C1S2 (stereo not shown)
18,40000,–,"CCNc1ccc2c(c1)N1CCN=C1S2 [6-NHC2 H5, N-ethyl-2,3-dihydroimidazo[2,1-b]benzothiazol-6-amine]"
450,95,–,c1ccc(Oc2ccc3c(c2)SC2=NCCN23)cc1 [7-OC6 H5]
18,34000,–,"CC(C)Nc1ccc2c(c1)N1CCN=C1S2 [6-NHi . C3 H7, 2,3-dihydro-N-(1-methylethyl)imidazo[2,1-b]benzothiazol-6-amine]"
120,600,–,Clc1cccc2c1N1CCN=C1S2 [Example 5-Cl]
1800,85000,–,"CC(=O)Nc1ccc2c(c1)N1CCN=C1S2 [Example 6-NHCOCH3, N-(2,3-dihydroimidazo[2,1-b]benzothiazol-6-yl)acetamide]"
–,–,1800,CCCCCCN(C=C(C(=O)OCC)C(=O)OCC)c1ccc2c(c1)SC1=[N+](CCCCCC)CCN12
3400,30,–,"CCOC(=O)C(=CNc1ccc2c(c1)SC1=NCCN12)C(=O)OCC [7-NHCHC(COOEt)2, diethyl 2-[(2,3-dihydroimidazo[2,1-b]benzothiazol-7-yl-amino)methylene]propanedioate]"
220,4000,–,Cc1cccc2c1N1CCN=C1S2 [Example 5-CH3]
55,12000,–,"c1c2c(cc3c1SC1=NCCN13)CCC2 [6,7-(CH2)3]"
2,40000,–,CCNc1cccc2c1SC1=NCCN12 [8-NHC2 H5]
12,65,–,c1cc2c(cc1C1CCCCC1)SC1=NCCN12 [7-c . C6 H 11]
100,45000,–,CCNc1ccc2c(c1)SC1=NCCN12 [7-NHC2 H5]
